In article PMC3265250 (Chemotherapy Research and Practice, 2011):
In brackets after ≈: the same amount, converted by molar mass. Read-outs that look alike come from different tables or passages of the source.

Experiments:
[1] = test system: Superantigen positive S. aureus (14); test: microbe, parasite or virus in culture; details: Staphylococcus aureus; for MIC50 / MIC90 / MIC: 18 h; for MIC: read-out: MIC Range
[2] = test system: Superantigen negative S. aureus (10); test: microbe, parasite or virus in culture; details: Staphylococcus aureus; for MIC50 / MIC90 / MIC: 18 h; for MIC: read-out: MIC Range
[3] = test system: Superantigen negative S. aureus (10); details: superantigen negative clinical isolates (10); more than 99.9% reduction of the initial inoculums, triplicate
S. aureus ATCC 25923 = test: MIC, microbroth dilution, referential strain ATCC 25923; format: cell-based, Staphylococcus aureus; details: Staphylococcus aureus, ATCC25923; ATCC 25923; microbroth dilution, MHB II, 5 × 10^5 CFU/mL, 18 h at 37°C, triplicate; read-out: MIC
Protocol: (§1) A total number of 24 SA strains were obtained from patients with erythrodermia and 3 reference SA ones from the American Type Culture Collection: 6538P ATCC, 9144 ATCC, and 25923 ATCC (Institute of Experimental Therapy, Wroclaw, Poland). […] Polypropylene 96-well plates (Sigma-Aldrich) were incubated for 18 h at 37°C. MIC was taken as the lowest drug concentration at which a noticeable growth was inhibited. […] The experiments were performed in triplicate.

S. aureus ATCC 9144 = test: MIC, microbroth dilution, referential strain ATCC 9144; format: cell-based, Staphylococcus aureus; details: Staphylococcus aureus, ATCC9144; ATCC 9144; microbroth dilution, MHB II, 5 × 10^5 CFU/mL, 18 h at 37°C, triplicate; read-out: MIC
[4] = test system: Superantigen positive S. aureus (14); details: superantigen positive clinical isolates (14), triplicate; for MBC Range: more than 99.9% reduction of the initial inoculums
S. aureus ATCC 6538P = test: MIC, microbroth dilution, referential strain ATCC 6538P; format: cell-based, Staphylococcus aureus; details: Staphylococcus aureus, ATCC6538P; ATCC 6538P; microbroth dilution, MHB II, 5 × 10^5 CFU/mL, 18 h at 37°C, triplicate; read-out: MIC
Protocol: as §1

Row | Structure (SMILES) | MIC50 [1] [µg/mL] | MIC90 [1] [µg/mL] | MIC [1] [µg/mL] | MIC90 ([1]; read-out: MICs 90%) [µg/mL] | MBC ([1]; read-out: MBC 50%) [µg/mL] | MBC ([1]; read-out: MBC 90%) [µg/mL] | MIC50 [2] [µg/mL] | MIC90 [2] [µg/mL] | MIC [2] [µg/mL] | MIC90 ([2]; read-out: MICs 90%) [µg/mL] | MBC ([2]; read-out: MBC 50%) [µg/mL] | MBC ([2]; read-out: MBC 90%) [µg/mL] | MBC Range [3] [µg/mL] | MIC (S. aureus ATCC 25923) [µg/mL] | MIC (S. aureus ATCC 9144) [µg/mL] | MBC Range [4] [µg/mL] | MIC (S. aureus ATCC 6538P) [µg/mL] | MIC Range ([4]; microbroth dilution, MHB II, 5 × 10^5 CFU/mL, 18 h at 37°C) [µg/mL]
1 | O=C(N[C@H](CO)[C@H](O)c1ccc([N+](=O)[O-])cc1)C(Cl)Cl [Chloramphenicol, chloramphenicol] | 8 (≈ 24.8 µM) | 64 (≈ 198 µM) | 4 to 128 (≈ 12.4 to 396 µM) | 64 (≈ 198 µM) | 16 (≈ 49.5 µM) | 128 (≈ 396 µM) | 4 (≈ 12.4 µM) | 32 (≈ 99 µM) | 2 to 32 (≈ 6.19 to 99 µM) | 32 (≈ 99 µM) | 8 (≈ 24.8 µM) | 32 (≈ 99 µM) | 8 to 32 | 4 (≈ 12.4 µM) | 4 (≈ 12.4 µM) | 8 to 128 | 4 (≈ 12.4 µM) | –
2 | O=C(O)c1cn(C2CC2)c2cc(N3CCNCC3)c(F)cc2c1=O [Ciprofloxacin, ciprofloxacin] | – | – | – | – | – | – | – | – | – | – | – | – | – | 1 (≈ 3.02 µM) | – | – | 1 (≈ 3.02 µM) | –
3 | CCC[C@@H]1C[C@@H](C(=O)N[C@@H]([C@H]2O[C@H](SC)[C@H](O)[C@@H](O)[C@H]2O)[C@H](C)Cl)N(C)C1 [Clindamycin, clindamycin] | 64 (≈ 151 µM) | 512 (≈ 1200 µM) | 8 to 512 (≈ 18.8 to 1200 µM) | 512 (≈ 1200 µM) | 64 (≈ 151 µM) | 128 (≈ 301 µM) | 32 (≈ 75.3 µM) | 32 (≈ 75.3 µM) | 16 to 64 (≈ 37.6 to 151 µM) | 32 (≈ 75.3 µM) | 32 (≈ 75.3 µM) | 64 (≈ 151 µM) | 64 to 128 | 2 (≈ 4.71 µM) | 2 (≈ 4.71 µM) | 16 to 512 | 4 (≈ 9.41 µM) | –
4 | CC[C@H]1OC(=O)[C@H](C)[C@@H](O[C@H]2C[C@@](C)(OC)[C@@H](O)[C@H](C)O2)[C@H](C)[C@@H](O[C@@H]2O[C@H](C)C[C@H](N(C)C)[C@H]2O)[C@](C)(O)C[C@@H](C)C(=O)[C@H](C)[C@@H](O)[C@]1(C)O [Erythromycin, erythromycin] | 1 (≈ 1.36 µM) | 256 (≈ 349 µM) | – | 256 (≈ 349 µM) | 8 (≈ 10.9 µM) | 128 (≈ 174 µM) | 0.5 (≈ 0.681 µM) | 0.5 (≈ 0.681 µM) | 0.25 to 64 (≈ 0.341 to 87.2 µM) | 0.5 (≈ 0.681 µM) | 1 (≈ 1.36 µM) | 2 (≈ 2.73 µM) | – | 1 (≈ 1.36 µM) | 1 (≈ 1.36 µM) | 4 to 512 | 1 (≈ 1.36 µM) | 0.25 to 512
5 | CC(=O)NC[C@H]1CN(c2ccc(N3CCOCC3)c(F)c2)C(=O)O1 [Linezolid, linezolid] | 1 (≈ 2.96 µM) | 2 (≈ 5.93 µM) | 0.5 to 2 (≈ 1.48 to 5.93 µM) | 2 (≈ 5.93 µM) | – | – | 1 (≈ 2.96 µM) | 1 (≈ 2.96 µM) | 0.5 to 2 (≈ 1.48 to 5.93 µM) | 1 (≈ 2.96 µM) | – | – | – | 0.5 (≈ 1.48 µM) | 1 (≈ 2.96 µM) | – | 0.5 (≈ 1.48 µM) | –
6 | CO[C@H]1/C=C/O[C@@]2(C)Oc3c(C)c(O)c4c(O)c(c(/C=N/N5CCN(C)CC5)c(O)c4c3C2=O)NC(=O)/C(C)=C\C=C\[C@H](C)[C@H](O)[C@@H](C)[C@@H](O)[C@@H](C)[C@H](OC(C)=O)[C@@H]1C [Rifampicin, rifampicin] | 0.25 (≈ 0.304 µM) | 1 (≈ 1.22 µM) | 0.25 to 1 (≈ 0.304 to 1.22 µM) | 1 (≈ 1.22 µM) | 1 (≈ 1.22 µM) | 2 (≈ 2.43 µM) | 0.25 (≈ 0.304 µM) | 1 (≈ 1.22 µM) | 0.25 to 1 (≈ 0.304 to 1.22 µM) | 1 (≈ 1.22 µM) | 0.25 (≈ 0.304 µM) | 1 (≈ 1.22 µM) | 1 to 2 | 0.25 (≈ 0.304 µM) | 0.25 (≈ 0.304 µM) | 0.5 to 2 | 0.25 (≈ 0.304 µM) | –
